{"source": "paper PMC6941952", "about": "“A homogeneous bioluminescent immunoassay to probe cellular signaling pathway regulation” (Communications Biology, 2020)", "tested_on": "total IκBα", "test": "NanoBiT cell-based immunoassay, total IκBα in human primary mammary epithelial cells;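 as to all read-outs here: TNFα at 50 ng per ml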", "settings": "for Total IkB Average: background subtracted; for Total IkB Raw data / Total IkB Subtract reagent background: listed as TNF", "procedure": "All cell lines used are from ATCC. […] Human Primary Mammary Epithelial Cells (#H-6035), Human Breast Tumor Epithelial Cells (#HC-6035), Complete Human Epithelial Cell Medium (#H6621), and Gelatin-Based Coating Solution (#H6950) were purchased from Cell Biologics. The cells were cultured according to the manufacturer’s procedure. All cells were grown at 37 °C in a 5% CO2 humidified incubator and passaged before reaching 80% cell confluency. Prior to each experiment, cells were counted by combining 30 µl of cell suspension with 30 µl of trypan blue. After gentle pipetting up and down to mix the cells and the dye, the cell number was determined using Bio-Rad TC 20 cell counter.\nPrior to NanoBiT Cell-Based Immunoassay, 50,000 cells were seeded in 160 µl of complete growth media per well of a 96-well plate and incubated overnight. The cells were checked under microscope and it was determined that 50,000 cells per well in 96-well plate is under 90% confluency for all cells tested. If necessary, the cell culture media were replaced with serum-free media after the cells were stably adherent on the plate and incubated overnight. To treat cells with activators or inhibitors, medium was changed to 30 µl of medium containing inhibitors. If activation of a specific pathway is needed, the cells were stimulated with 10 µl of medium containing activators. To lyse the cells, 10 µl of lysis buffer containing 0.1% digitonin diluted in 1X immunoassay buffer with protease and phosphatase inhibitors was added and the plates were mixed vigorously for 20 min. Then, 50 µl of an antibody mix containing two primary antibodies against the target protein and NanoBiT detecting antibodies (0.3 µl each per well), diluted in 1X immunoassay buffer was added to the lysates. The plates were incubated at 23 °C for 90 min, followed by the addition of 25 µl of Nano-Glo® reagent consisting of Nano-Glo® Luciferase Assay Substrate mixed with 1X immunoassay buffer. Luminescence was measured using a plate-reading luminometer.\nSingle dose or dose response inhibitor treatments were performed prior to activation of the pathways as follows. For IκBα, the cells were treated in 30 µl medium with IKK16 or MG132 for 60 min before the addition of 10 µl of DMEM containing appropriate concentration of TNFα. To measure phosphorylation of AKT or STAT3, the corresponding NanoBiT immunoassays were developed with MCF-7 or A431 cells, respectively, according the same scheme used to develop the IκBα assay using the primary antibodies for AKT and STAT3 described in the reagents section. For the AKT assay, MCF-7 cells were incubated overnight in phenol-red free DMEM medium (Gibco #21063-029) without serum. Treatment with LY294002 was performed in 30 µl medium and cells were incubated for 60 min before the addition of 1 µM Insulin. To measure STAT3 phosphorylation, A431 cells were incubated overnight in DMEM medium without serum. […] After addition of the stimulators, the cells were incubated for additional times as follows. IκBα phosphorylation and degradation analyses required both time courses and single time points as described in figures. […] The NanoBiT immunoassay protocol was followed as described above.\nAll 96-well assay plates were read using a GloMax® 96 Microplate Luminometer from Promega. The instrument was set to 0.5 s integration time. In order to obtain net change of signal, the reagent background values (signal from the well containing all reagent except primary antibodies) were subtracted from the sample values. To plot and analyze the data, Microsoft Excel and GraphPad Prism® Software were used. IC50 values were determined by using a nonlinear regression fit to a sigmoidal dose response (variable slope).", "note": "“And” between values parts separate entries of the source, which are not always exact repeats. Equal values may be shown once."}
{"substance": "TNFα", "values": [{"measurement": "Total IkB Average", "setting": "TNF 2 min", "result": 18292}, {"measurement": "Total IkB Raw data", "setting": "TNF 2 min", "result": "29190 and 27950 and 27350"}, {"measurement": "Total IkB Subtract reagent background", "setting": "TNF 2 min", "result": "19319 and 18079 and 17479"}, {"measurement": "Total IkB Average", "setting": "TNF 4 min", "result": 16139}, {"measurement": "Total IkB Raw data", "setting": "TNF 4 min", "result": "26330 and 26760 and 24940"}, {"measurement": "Total IkB Subtract reagent background", "setting": "TNF 4 min", "result": "16459 and 16889 and 15069"}, {"measurement": "Total IkB Average", "setting": "TNF 6 min", "result": 13185}, {"measurement": "Total IkB Raw data", "setting": "TNF 6 min", "result": "23190 and 23370 and 22610"}, {"measurement": "Total IkB Subtract reagent background", "setting": "TNF 6 min", "result": "13319 and 13499 and 12739"}, {"measurement": "Total IkB Average", "setting": "TNF 8 min", "result": 9145}, {"measurement": "Total IkB Raw data", "setting": "TNF 8 min", "result": "19430 and 18940 and 18680"}, {"measurement": "Total IkB Subtract reagent background", "setting": "TNF 8 min", "result": "9559 and 9069 and 8809"}, {"measurement": "Total IkB Average", "setting": "TNF 10 min", "result": 6539}, {"measurement": "Total IkB Raw data", "setting": "TNF 10 min", "result": "16860 and 16350 and 16020"}, {"measurement": "Total IkB Subtract reagent background", "setting": "TNF 10 min", "result": "6989 and 6479 and 6149"}, {"measurement": "Total IkB Average", "setting": "TNF 12 min", "result": 4795}, {"measurement": "Total IkB Raw data", "setting": "TNF 12 min", "result": "14910 and 14630 and 14460"}, {"measurement": "Total IkB Subtract reagent background", "setting": "TNF 12 min", "result": "5039 and 4759 and 4589"}, {"measurement": "Total IkB Average", "setting": "TNF 15 min", "result": 3099}, {"measurement": "Total IkB Raw data", "setting": "TNF 15 min", "result": "13120 and 12980 and 12810"}, {"measurement": "Total IkB Subtract reagent background", "setting": "TNF 15 min", "result": "3249 and 3109 and 2939"}, {"measurement": "Total IkB Average", "setting": "TNF 30 min", "result": 3035}, {"measurement": "Total IkB Raw data", "setting": "TNF 30 min", "result": "13030 and 12940 and 12750"}, {"measurement": "Total IkB Subtract reagent background", "setting": "TNF 30 min", "result": "3159 and 3069 and 2879"}, {"measurement": "Total IkB Average", "setting": "TNF 45 min", "result": 5225}, {"measurement": "Total IkB Raw data", "setting": "TNF 45 min", "result": "15670 and 15120 and 14500"}, {"measurement": "Total IkB Subtract reagent background", "setting": "TNF 45 min", "result": "5799 and 5249 and 4629"}, {"measurement": "Total IkB Average", "setting": "TNF 60 min", "result": 7062}, {"measurement": "Total IkB Raw data", "setting": "TNF 60 min", "result": "16790 and 17170 and 16840"}, {"measurement": "Total IkB Subtract reagent background", "setting": "TNF 60 min", "result": "6919 and 7299 and 6969"}]}
